Source: US20250034216A1, “STEREOSELECTIVE COVALENT LIGANDS FOR ONCOGENIC AND IMMUNOLOGICAL PROTEINS” (The Scripps Research Institute, priority 2021, published 2025)

Key:
[1] = target: T1, EPHX4_C287 (Homo sapiens, UniProt Q8IUS5); assay: IA-DTB cysteine engagement; assay type: binding; details: 22Rv1 cells, 20 μM probe, 1 h, relative to DMSO
T1 construct: endogenous in cells; host or cells: 22Rv1
T1 sequence (Q8IUS5 1-362): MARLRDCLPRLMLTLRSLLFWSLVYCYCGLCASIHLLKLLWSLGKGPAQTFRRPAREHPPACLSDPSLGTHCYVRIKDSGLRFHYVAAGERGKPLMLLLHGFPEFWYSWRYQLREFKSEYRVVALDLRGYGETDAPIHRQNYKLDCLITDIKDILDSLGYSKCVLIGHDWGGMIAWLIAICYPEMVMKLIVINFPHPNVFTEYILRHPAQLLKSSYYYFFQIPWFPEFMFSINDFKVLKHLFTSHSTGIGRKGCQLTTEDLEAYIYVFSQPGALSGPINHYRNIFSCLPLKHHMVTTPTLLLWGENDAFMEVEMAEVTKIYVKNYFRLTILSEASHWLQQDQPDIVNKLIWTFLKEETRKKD
In short: (§1)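 Competitive chemoproteomics: residual cysteine reactivity toward IA-DTB in lysates from probe-treated cells was quantified by TMT reporter ions relative to DMSO-treated controls. Replicates sharing cell line, probe, concentration and duration were averaged.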

[2] = target: T2, ACTL8_C197 (Homo sapiens, UniProt Q9H568); assay: IA-DTB cysteine engagement; assay type: binding; details: 22Rv1 cells, 20 μM probe, 1 h, relative to DMSO
T2 construct: endogenous in cells; host or cells: 22Rv1
T2 sequence (Q9H568 1-366): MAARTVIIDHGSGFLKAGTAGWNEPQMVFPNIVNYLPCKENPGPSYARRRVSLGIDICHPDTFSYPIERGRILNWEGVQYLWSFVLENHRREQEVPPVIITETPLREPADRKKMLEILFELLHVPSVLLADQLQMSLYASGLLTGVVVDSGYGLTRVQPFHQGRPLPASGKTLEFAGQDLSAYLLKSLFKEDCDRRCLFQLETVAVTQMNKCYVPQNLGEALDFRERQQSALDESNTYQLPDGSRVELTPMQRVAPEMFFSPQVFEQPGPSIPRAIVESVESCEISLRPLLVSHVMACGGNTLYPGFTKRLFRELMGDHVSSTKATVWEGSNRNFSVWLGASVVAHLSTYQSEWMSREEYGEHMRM
In short: as §1

Row | % engagement EPHX4_C287 [1] [%] | % engagement ACTL8_C197 [2] [%] | SMILES
1 | 86.5 | 36.75 | C=CC(=O)N1C[C@H](c2ccc(Br)cc2)[C@H]1C(=O)Nc1cccc2cccnc12 [MY-3B, (2S,3S)-1-acryloyl-3-(4-bromophenyl)-N-(quinolin-8-yl)azetidine-2-carboxamide]
2 | 44.5 | 66.25 | C=CC(=O)N1C[C@H](c2ccc(Br)cc2)[C@@H]1C(=O)Nc1cccc2cccnc12 [MY-1B, (2R,3S)-1-acryloyl-3-(4-bromophenyl)-N-(quinolin-8-yl)azetidine-2-carboxamide]
3 | 28 | 3.25 | C=CC(=O)N1C[C@H](c2ccc(Br)cc2)[C@H]1C(=O)Nc1cccc2cccnc12 [MY-3A, (2S,3S)-1-acryloyl-3-(4-bromophenyl)-N-(quinolin-8-yl)azetidine-2-carboxamide]
4 | 23.5 | 14 | C=CC(=O)N1C[C@@H](c2ccc(Br)cc2)[C@H]1C(=O)Nc1cccc2cccnc12 [MY-1A, (2S,3R)-1-acryloyl-3-(4-bromophenyl)-N-(quinolin-8-yl)azetidine-2-carboxamide]
